Source: PubChem BioAssay AID330 (DTP/NCI, 2004)
Several values for one entry are separate records, joined by “and”; a condition that tells them apart may be missing. Equal entries are not always repeated. Toxic doses and inconclusive results are not listed. How the source made its calls: active means survival T/C of 150% or more; inactive means T/C below 125% in these data.

Test system: P388 leukemia ip, CD2F1 mice, survival T/C
Experiment: NCI In Vivo Anticancer Drug Screen. Data for tumor model P388 Leukemia (intraperitoneal) in CD2F1 (CDF1) mice
Details: endpoint: median survival time, higher = longer survival
Outline: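 Mice carrying the transplanted tumor received test compound or vehicle. Survival was recorded in each group, and the value is the treated-group measurement divided by that of the vehicle-treated control group.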

[1] = dose: 50.0 mg/kg/injection, schedule: Q01DX009 (ip), vehicle: saline with Tween-80
[2] = dose: 50.0 mg/kg/injection, schedule: Q01DX005 (ip), vehicle: Klucel (hydroxypropylcellulose) (HPC)
[3] = dose: 100.0 mg/kg/injection, schedule: Q01DX005 (ip), vehicle: Klucel (hydroxypropylcellulose) (HPC)
[4] = dose: 100.0 mg/kg/injection, schedule: Q01DX009 (ip), vehicle: saline with Tween-80
[5] = dose: 200.0 mg/kg/injection, schedule: Q01DX009 (ip), vehicle: saline with Tween-80
[6] = dose: 50.0 mg/kg/injection, schedule: Q01DX009 (ip), vehicle: saline
[7] = dose: 100.0 mg/kg/injection, schedule: Q01DX009 (ip), vehicle: saline
[8] = dose: 200.0 mg/kg/injection, schedule: Q01DX009 (ip), vehicle: saline

Measured: T/C

O=c1oc(-c2ccc(Cl)cc2)nc2cc(Cl)ccc12
inactive: dose: 6.25 mg/kg/injection, schedule: Q01DX009 (ip), vehicle: saline with Tween-80 96 % of control | dose: 12.5 mg/kg/injection, schedule: Q01DX009 (ip), vehicle: saline with Tween-80 100 % of control | dose: 25.0 mg/kg/injection, schedule: Q01DX009 (ip), vehicle: saline with Tween-80 100 % of control | [1] 99 % of control

CN1CCN(C)B1N=S=NB1N(C)CCN1C
inactive: dose: 12.5 mg/kg/injection, schedule: Q01DX005 (ip), vehicle: olive oil, sesame oil, peanut oil 100 % of control and 105 % of control | dose: 25.0 mg/kg/injection, schedule: Q01DX005 (ip), vehicle: olive oil, sesame oil, peanut oil 105 % of control and 96 % of control | dose: 50.0 mg/kg/injection, schedule: Q01DX005 (ip), vehicle: olive oil, sesame oil, peanut oil 104 % of control and 97 % of control | dose: 100.0 mg/kg/injection, schedule: Q01DX005 (ip), vehicle: olive oil, sesame oil, peanut oil 102 % of control and 103 % of control

CC(=O)Nc1cc(Cl)cc2c1-c1ccc(Cl)cc1C2=O
inactive: [2] 88 % of control | [3] 94 % of control

CC(C)(C)c1cc2c(O)c(c1)Cc1cc(C(C)(C)C)cc(c1O)Cc1cc(C(C)(C)C)cc(c1O)Cc1cc(C(C)(C)C)cc(c1O)Cc1cc(C(C)(C)C)cc(c1O)Cc1cc(C(C)(C)C)cc(c1O)Cc1cc(C(C)(C)C)cc(c1O)Cc1cc(C(C)(C)C)cc(c1O)C2
inactive: [2] 101 % of control | [3] 90 % of control | dose: 200.0 mg/kg/injection, schedule: Q01DX005 (ip), vehicle: Klucel (hydroxypropylcellulose) (HPC) 99 % of control

COC(=O)/C(O)=C(/O)C(=O)OC
inactive: dose: 50.0 mg/kg/injection, schedule: Q01DX005 (ip), vehicle: saline with Tween-80 99 % of control | dose: 100.0 mg/kg/injection, schedule: Q01DX005 (ip), vehicle: saline with Tween-80 100 % of control | dose: 200.0 mg/kg/injection, schedule: Q01DX005 (ip), vehicle: saline with Tween-80 99 % of control

COC(=O)C1=C(C(=O)OC)N2c3ccccc3-n3c(-c4ccccc4)cc(OC)c3C2(C)C(C(=O)OC)=C1C(=O)OC (stereo unspecified)
inactive: dose: 100.0 mg/kg/injection, schedule: Q01DX001 (ip), vehicle: saline with Tween-80 99 % of control | dose: 200.0 mg/kg/injection, schedule: Q01DX001 (ip), vehicle: saline with Tween-80 99 % of control | dose: 400.0 mg/kg/injection, schedule: Q01DX001 (ip), vehicle: saline with Tween-80 92 % of control

CSc1nc(N)n2nc(C)cc2n1
inactive: dose: 60.0 mg/kg/injection, schedule: Q01DX005 (ip), vehicle: saline with Tween-80 100 % of control | dose: 120.0 mg/kg/injection, schedule: Q01DX005 (ip), vehicle: saline with Tween-80 100 % of control | dose: 240.0 mg/kg/injection, schedule: Q01DX005 (ip), vehicle: saline with Tween-80 95 % of control

Clc1ccc(C2=NC(c3ccccc3)/C(=C/c3ccccc3)S2)cc1 (stereo unspecified)
inactive: [1] 101 % of control | [4] 98 % of control | [5] 90 % of control

CCCCNCCC(O)c1cc2ccc(C(F)(F)F)cc2c2cc(C(F)(F)F)ccc12 (stereo unspecified)
inactive: [1] 86 % of control | [4] 91 % of control

Cc1ccc(NC(=O)Oc2cc(C)c(Cl)cc2Br)cc1Cl
inactive: [6] 100 % of control | [7] 107 % of control | [8] 116 % of control

CC(=O)CCN1C(C#N)CCCC1C#N (stereo unspecified)
inactive: dose: 6.25 mg/kg/injection, schedule: Q01DX005 (ip), vehicle: saline with Tween-80 102 % of control | dose: 12.5 mg/kg/injection, schedule: Q01DX005 (ip), vehicle: saline with Tween-80 91 % of control | dose: 25.0 mg/kg/injection, schedule: Q01DX005 (ip), vehicle: saline with Tween-80 100 % of control

O=C(O)c1ccc(O)c(O)c1
inactive: [6] 104 % of control and 111 % of control | [7] 100 % of control and 103 % of control | [8] 103 % of control and 98 % of control | dose: 400.0 mg/kg/injection, schedule: Q01DX009 (ip), vehicle: saline 103 % of control and 118 % of control | dose: 600.0 mg/kg/injection, schedule: Q01DX009 (ip), vehicle: saline 100 % of control

Cc1cn[nH]c(=O)c1
inactive: [1] 99 % of control | [4] 99 % of control | [5] 99 % of control
